From ChEMBL document CHEMBL6134868, “Novel Aryl Sulfonium Modification on Vancomycin to Tackle MRSA and VRE In Vitro and In Vivo through Dual Enhanced Cell-Wall and Membrane Inhibition” (J Med Chem, 2025)

Key:
[1] = Protein binding in plasma (unknown origin); assay type: ADME, cell-free; settings: read-out: PPB (converted)
[2] = test system: Pseudomonas aeruginosa; test: Antibacterial activity against Pseudomonas aeruginosa PAO1 incubated for 16 to 24 hrs by broth microdilution assay; assay type: functional; settings: time 16-24 hrs
[3] = test system: Enterococcus faecium; test: Antibacterial activity against vancomycin-resistant Enterococcus faecium Efm-HS-0649 harboring VanA phenotype incubated for 16 to 24 hrs by broth microdilution assay; assay type: functional; settings: time 16-24 hrs
[4] = test system: Acinetobacter baumannii; test: Antibacterial activity against carbapenem-resistant Acinetobacter baumannii CRAB-1 clinical isolate incubated for 16 to 24 hrs by broth microdilution assay; assay type: functional; settings: time 16-24 hrs
[5] = test system: Escherichia coli; test: Antibacterial activity against Escherichia coli AB1157 incubated for 16 to 24 hrs by broth microdilution assay; assay type: functional; settings: time 16-24 hrs
[6] = test system: Enterococcus faecium; test: Antibacterial activity against vancomycin-resistant Enterococcus faecium Efm-HS-vb01 harboring VanB phenotype incubated for 16 to 24 hrs by broth microdilution assay; assay type: functional; settings: time 16-24 hrs
[7] = test system: Enterococcus faecium; test: Antibacterial activity against vancomycin-resistant Enterococcus faecium Efm-HS-08257 harboring VanM phenotype incubated for 16 to 24 hrs by broth microdilution assay; assay type: functional; settings: time 16-24 hrs
[8] = test system: Acinetobacter baumannii; test: Antibacterial activity against Acinetobacter baumannii ATCC19606 incubated for 16 to 24 hrs by broth microdilution assay; assay type: functional; settings: time 16-24 hrs
[9] = test system: Enterococcus faecium; test: Antibacterial activity against vancomycin-resistant Enterococcus faecium Efm-HS-vb02 harboring VanB phenotype incubated for 16 to 24 hrs by broth microdilution assay; assay type: functional; settings: time 16-24 hrs
[10] = test system: Staphylococcus aureus; test: Antibacterial activity against methicillin-resistant Staphylococcus aureus USA300 LAC incubated for 16 to 24 hrs by broth microdilution assay; assay type: functional; settings: time 16-24 hrs
[11] = test system: Staphylococcus aureus; test: Antibacterial activity against vancomycin-intermediate Staphylococcus aureus Mu50 incubated for 16 to 24 hrs by broth microdilution assay; assay type: functional; settings: time 16-24 hrs
[12] = test system: Klebsiella pneumoniae; test: Antibacterial activity against Klebsiella pneumoniae KP-1 incubated for 16 to 24 hrs by broth microdilution assay; assay type: functional; settings: time 16-24 hrs

| SMILES | fraction unbound [1] | MIC [2] [µg/mL] | MIC [3] [µg/mL] | MIC [4] [µg/mL] | MIC [5] [µg/mL] | MIC [6] [µg/mL] | MIC [7] [µg/mL] | MIC [8] [µg/mL] | MIC [9] [µg/mL] | MIC [10] [µg/mL] | MIC [11] [µg/mL] | MIC [12] [µg/mL] |
| --- | --- | --- | --- | --- | --- | --- | --- | --- | --- | --- | --- | --- |
| CN[C@H](CC(C)C)C(=O)N[C@H]1C(=O)N[C@@H](CC(N)=O)C(=O)N[C@H]2C(=O)N[C@H]3C(=O)N[C@H](C(=O)N[C@H](C(=O)O)c4cc(O)cc(O)c4-c4cc3ccc4O)[C@H](O[C@H]3C[C@](C)(N)[C@@H](O)[C@H](C)O3)c3ccc(c(Cl)c3)Oc3cc2cc(c3O[C@@H]2O[C@H](CO)[C@@H](O)[C@H](O)[C@H]2O[C@H]2C[C@](C)(NCc3ccc(-c4ccc(Cl)cc4)cc3)[C@@H](O)[C@H](C)O2)Oc2ccc(cc2Cl)[C@H]1O [ORITAVANCIN] | 0.14 |  |  |  |  |  |  |  |  |  |  |  |
| CN[C@H]1C(=O)N[C@@H]2Cc3ccc(cc3)Oc3cc4cc(c3O[C@@H]3O[C@H](C(=O)O)[C@@H](O)[C@H](O)[C@H]3NC(=O)CCCCCCCCC(C)C)Oc3ccc(cc3Cl)[C@@H](O)[C@@H]3NC(=O)[C@H](NC(=O)[C@@H]4NC(=O)[C@@H](NC2=O)c2cc(cc(O)c2Cl)Oc2cc1ccc2O)c1ccc(O)c(c1)-c1c(OC2OC(CO)C(O)C(O)C2O)cc(O)cc1[C@@H](C(=O)NCCCN(C)C)NC3=O (stereo partly specified) | 0.07 |  |  |  |  |  |  |  |  |  |  |  |
| CN[C@H](CC(C)C)C(=O)N[C@H]1C(=O)N[C@@H](CC(N)=O)C(=O)N[C@H]2C(=O)N[C@H]3C(=O)N[C@H](C(=O)N[C@H](C(=O)NCCC[S+](C)CC(O)COc4ccc(Br)cc4)c4cc(O)cc(O)c4-c4cc3ccc4O)[C@H](O)c3ccc(c(Cl)c3)Oc3cc2cc(c3O[C@@H]2O[C@H](CO)[C@@H](O)[C@H](O)[C@H]2O[C@H]2C[C@](C)(N)[C@H](O)[C@H](C)O2)Oc2ccc(cc2Cl)[C@H]1O.O=C([O-])C(F)(F)F (stereo partly specified) |  | 128 | 8 | 64 | 16 | 4 | 4 | 32 | 4 | ≤ 0.063 | 1 | > 128 |
| CC(C)C[C@H](C(=O)N[C@H]1C(=O)N[C@@H](CC(N)=O)C(=O)N[C@H]2C(=O)N[C@H]3C(=O)N[C@H](C(=O)N[C@H](C(=O)O)c4cc(O)cc(O)c4-c4cc3ccc4O)[C@H](O)c3ccc(c(Cl)c3)Oc3cc2cc(c3O[C@@H]2O[C@H](CO)[C@@H](O)[C@H](O)[C@H]2O[C@H]2C[C@](C)(N)[C@H](O)[C@H](C)O2)Oc2ccc(cc2Cl)[C@H]1O)N(C)CCC[S+](C)C[C@@H](O)COc1ccccc1.O=C([O-])C(F)(F)F (stereo partly specified) |  | > 128 | > 128 | > 128 | > 128 | 64 | 128 | > 128 | 32 | 1 | 8 | > 128 |
| CN[C@H](CC(C)C)C(=O)N[C@H]1C(=O)N[C@@H](CC(N)=O)C(=O)N[C@H]2C(=O)N[C@H]3C(=O)N[C@H](C(=O)N[C@H](C(=O)NCCC[S+](C)CC(O)COc4cccc(Cl)c4)c4cc(O)cc(O)c4-c4cc3ccc4O)[C@H](O)c3ccc(c(Cl)c3)Oc3cc2cc(c3O[C@@H]2O[C@H](CO)[C@@H](O)[C@H](O)[C@H]2O[C@H]2C[C@](C)(N)[C@H](O)[C@H](C)O2)Oc2ccc(cc2Cl)[C@H]1O.O=C([O-])C(F)(F)F (stereo partly specified) |  | 128 | 16 | 64 | 16 | 8 | 4 | 32 | 2 | 0.125 | 1 | > 128 |
| CN[C@H](CC(C)C)C(=O)N[C@H]1C(=O)N[C@@H](CC(N)=O)C(=O)N[C@H]2C(=O)N[C@H]3C(=O)N[C@H](C(=O)N[C@H](C(=O)NCCC[S+](C)CC(O)COc4ccc(Cl)cc4)c4cc(O)cc(O)c4-c4cc3ccc4O)[C@H](O)c3ccc(c(Cl)c3)Oc3cc2cc(c3O[C@@H]2O[C@H](CO)[C@@H](O)[C@H](O)[C@H]2O[C@H]2C[C@](C)(N)[C@H](O)[C@H](C)O2)Oc2ccc(cc2Cl)[C@H]1O.O=C([O-])C(F)(F)F (stereo partly specified) |  | 128 | 16 | 128 | 16 | 8 | 8 | 32 | 4 | ≤ 0.063 | 1 | > 128 |
| CN[C@H](CC(C)C)C(=O)N[C@H]1C(=O)N[C@@H](CC(N)=O)C(=O)N[C@H]2C(=O)N[C@H]3C(=O)N[C@H](C(=O)N[C@H](C(=O)NCCC[S+](C)CC(O)COc4ccccc4)c4cc(O)cc(O)c4-c4cc3ccc4O)[C@H](O)c3ccc(c(Cl)c3)Oc3cc2cc(c3O[C@@H]2O[C@H](CO)[C@@H](O)[C@H](O)[C@H]2O[C@H]2C[C@](C)(N)[C@H](O)[C@H](C)O2)Oc2ccc(cc2Cl)[C@H]1O.O=C([O-])C(F)(F)F (stereo partly specified) |  | > 128 | 32 | > 128 | 16 | 16 | 16 | 64 | 4 | 0.25 | 2 | > 128 |
| CC(C)C[C@H](C(=O)N[C@H]1C(=O)N[C@@H](CC(N)=O)C(=O)N[C@H]2C(=O)N[C@H]3C(=O)N[C@H](C(=O)N[C@H](C(=O)O)c4cc(O)cc(O)c4-c4cc3ccc4O)[C@H](O)c3ccc(c(Cl)c3)Oc3cc2cc(c3O[C@@H]2O[C@H](CO)[C@@H](O)[C@H](O)[C@H]2O[C@H]2C[C@](C)(N)[C@H](O)[C@H](C)O2)Oc2ccc(cc2Cl)[C@H]1O)N(C)CCC[S+](C)C[C@H](O)COc1ccccc1.O=C([O-])C(F)(F)F (stereo partly specified) |  | > 128 | > 128 | > 128 | > 128 | 64 | 128 | > 128 | 32 | 2 | 8 | > 128 |
| CN[C@H](CC(C)C)C(=O)N[C@H]1C(=O)N[C@@H](CC(N)=O)C(=O)N[C@H]2C(=O)N[C@H]3C(=O)N[C@H](C(=O)N[C@H](C(=O)NCCC[S+](C)CC(O)COc4ccc(-c5ccc(C(F)(F)F)cc5)cc4)c4cc(O)cc(O)c4-c4cc3ccc4O)[C@H](O)c3ccc(c(Cl)c3)Oc3cc2cc(c3O[C@@H]2O[C@H](CO)[C@@H](O)[C@H](O)[C@H]2O[C@H]2C[C@](C)(N)[C@H](O)[C@H](C)O2)Oc2ccc(cc2Cl)[C@H]1O.O=C([O-])C(F)(F)F (stereo partly specified) |  | > 128 | 2 | 128 | 16 | 4 | 1 | 32 | 0.5 | 0.5 | 0.25 | > 128 |
| CN[C@H](CC(C)C)C(=O)N[C@H]1C(=O)N[C@@H](CC(N)=O)C(=O)N[C@H]2C(=O)N[C@H]3C(=O)N[C@H](C(=O)N[C@H](C(=O)O)c4cc(O)cc(O)c4-c4cc3ccc4O)[C@H](O)c3ccc(c(Cl)c3)Oc3cc2cc(c3O[C@@H]2O[C@H](CO)[C@@H](O)[C@H](O)[C@H]2O[C@H]2C[C@](C)(NCCC[S+](C)C[C@@H](O)COc3ccccc3)[C@H](O)[C@H](C)O2)Oc2ccc(cc2Cl)[C@H]1O.O=C([O-])C(F)(F)F (stereo partly specified) |  | > 128 | 16 | 128 | 128 | 16 | 16 | 128 | 4 | 0.25 | 1 | > 128 |
| CN[C@H](CC(C)C)C(=O)N[C@H]1C(=O)N[C@@H](CC(N)=O)C(=O)N[C@H]2C(=O)N[C@H]3C(=O)N[C@H](C(=O)N[C@H](C(=O)O)c4cc(O)c(CNCCC[S+](C)CC(O)COc5ccccc5)c(O)c4-c4cc3ccc4O)[C@H](O)c3ccc(c(Cl)c3)Oc3cc2cc(c3O[C@@H]2O[C@H](CO)[C@@H](O)[C@H](O)[C@H]2O[C@H]2C[C@](C)(N)[C@H](O)[C@H](C)O2)Oc2ccc(cc2Cl)[C@H]1O.O=C([O-])C(F)(F)F (stereo partly specified) |  | > 128 | 128 | 128 | 32 | 2 | 64 | 128 | 4 | 0.5 | 4 | > 128 |
